In patent US20170283859A1, “MICROFLUIDIC qRT-PCR ANALYSIS OF SINGLE CELLS” (The Trustees Of Columbia University In the City of New York, priority 2014, published 2017):

Tests used:
Assay type in all cases: cell-based
[1] = tested on: GAPDH transcript level in single MCF-7 cells; test: Microfluidic array single-cell RT-qPCR, housekeeping gene GAPDH; conditions: 120 μg/mL MMS for 2.5 h
Protocol: During the operation of the array chip, a single analysis unit is selected through the multiplexed valves and then 4x10^6 magnetic beads are introduced (100 nL/s for 20 s) until all analysis units have beads with a syringe pump while an external magnet is held under the chambers. The amount of beads is determined according to the manufacturer's reported bead density and verified by pipetting beads onto a glass slide and counting the total amount of beads with ImageJ software. […] The resulting cDNA template for PCR is amplified (qPCR: 10 min at 95° C., followed by 40 cycles of 15 s at 95° C. and 1 min at 60° C.) while the accumulation of products is imaged on a fluorescence microscope using a hydrolysis probe/primer set (TaqMan®). […] Initially, the fluorescence of FAM is suppressed by NFQ. […] Fluorescent intensities of ROX and FAM are acquired and measured at the end of each PCR cycle (FIG. 29). […] The transcript levels of CDKN1 A and the housekeeping gene GAPDH was measured in MMS treated (120 μg/mL for 2.5 h) and untreated single MCF-7 cells using the microfluidic array. […]

[2] = tested on: CDKN1A transcript levels in single MCF-7 cells; test: Microfluidic array single-cell RT-qPCR, drug induced CDKN1A expression
Protocol: During the operation of the array chip, a single analysis unit is selected through the multiplexed valves and then 4x10^6 magnetic beads are introduced (100 nL/s for 20 s) until all analysis units have beads with a syringe pump while an external magnet is held under the chambers. The amount of beads is determined according to the manufacturer's reported bead density and verified by pipetting beads onto a glass slide and counting the total amount of beads with ImageJ software. Next a single analysis unit is reselected with the multiplexed valves and 1.25 μL of cell-containing carrier buffer are introduced (concentration: 10^5 cells/mL, flow rate: 15 nL/s, and infusion time: 83.3 seconds) into the microfluidic device and travel through the cell trap with the first cell to reach the trapping structure becoming trapped. The width of the constriction (5 μm) is smaller than the diameter of the cells (18±2 μm) and therefore the single cell can be immobilized in the trap.
Once a single cell becomes immobilized, the back control valve is opened to allow carrier fluid, potentially containing additional cells, to bypass the trapping region and flow directly to the outlet. To further ensure that no cells remain in the outlet well, buffer is injected into the inlet well with a syringe with a 25 gauge stainless steel needle. Lysis buffer is introduced into the cell trap region of each analysis unit at a flow rate of 2 μl/min over a 5-min period to lyse the trapped cell (Sun et al. 2015). After cell lysis the beads were mixed with the cell lysate by manually moving the magnet and captured the mRNA in the cell content, based on complimentary base pairing between the polyA tails of the mRNA and the oligo(dT)25 residues covalently coupled to the bead surfaces. […] The beads were moved into the active chamber and mixed with the sample (mRNA in cell lysate or XenoRNA) by magnet-driven motion. This process is then repeated for the remaining units of the array chip until five of the RT-qPCR chambers each contain beads with bound mRNA. The sixth chamber provides no-template control.
Reverse transcription is performed in all of the six chambers to convert the mRNA into cDNA, using the bead-bound oligo(dT)25 as a primer and with the chamber temperatures controlled simultaneously in closed loop by the integrated heater and temperature sensor (RT: 10 min at 25° C. and 50 min at 42° C.). The resulting cDNA template for PCR is amplified (qPCR: 10 min at 95° C., followed by 40 cycles of 15 s at 95° C. and 1 min at 60° C.) while the accumulation of products is imaged on a fluorescence microscope using a hydrolysis probe/primer set (TaqMan®). The reagent probe/primer consists of a fluorescein amidite (FAM) reporter dye, a minor groove binder and a nonfluorescent quencher (NFQ). Initially, the fluorescence of FAM is suppressed by NFQ. During the PCR annealing process, the probe binds to a complementary region of the target template. Then, during the elongation process that follows, […] from the probe, causing the fluorescent intensity of FAM to increase. To correct for fluorescent fluctuations due to batch-to-batch changes in cavity volume and PCR component concentrations, a passive reference dye (ROX) is employed to normalize the FAM signal during real-time measurements. Fluorescent intensities of ROX and FAM are acquired and measured at the end of each PCR cycle (FIG. 29).
In this example, stress induced gene expression in single cells was investigated by treating cells with MMS, an alkylating agent, and then analyzing them by on-chip RT-qPCR. […]
In each test, five MMS treated or untreated single cells were isolated and immobilized in five separate analysis units of the array, and the remaining unit was used as a no-template control. Similar to the above mentioned protocol, after cell trapping and lysis, the two-step RT-qPCR was initialized. […]

[3] = tested on: CDKN1A gene expression in single MCF-7 cells; test: Fully integrated on-chip single-cell RT-qPCR (single analysis unit device), induction of CDKN1A
Protocol: In this example, all steps of single-cell RT-qPCR were integrated in the device from Example 1. […] MCF-7 cells were incubated with MEM media supplemented with 10% FBS and […], and were kept at 37° C. in a humidified incubator containing 5% CO2. The Cells used herein, whether treated or not, were from the same generation of MCF-7 cells to eliminate potential generational gene expression differences. The MCF-7 cell suspension was first diluted to 10^5 cells per mL in a microcentrifuge tube, and mixed to homogenize the suspension and break up cell clusters. The homogenized cell suspension was then driven into the device through the cell inlet via a syringe pump while valves were used to manipulate the direction of the flow. The trapping structure was observed under a microscope. As all cells were directed through the cell trapping unit and the width of the channel at the protruding structure (i.e., the portion of the mold that narrows the channel) within the trapping unit (5 μm) is smaller than the average diameter of MCF-7 cells (18±2 μm), a single cell was immobilized in the trap. Once a single cell was trapped, the upstream control valve (FIG. 5) was activated while the cell washing outlet was opened to direct (the potentially cell-containing) carrier fluid away from the cell trap. On average, 1.5 cells were introduced into the device per second. Single cells were consistently trapped in the microchip in 150 seconds or less. A lysis solution (100 mM TrisHCl, pH 7.5, 500 mM LiCl, 10 mM EDTA, 1% LiDS, 5 mM dithiothreitol) was used to chemically lyse the trapped cells. By mixing oligo(dT)25 functionalized beads with the cell lysate, mRNA templates from a single cell were captured and purified on the surface of the beads. The beads were then moved back to the reaction chamber and retained by an external magnet. With the cell trapping and washing outlets closed and the upstream and downstream valves open (FIG. 5), RT reagents were pipetted into the device chamber, followed by the closure of all the inlets and outlets. Then a pulsed temperature RT protocol was carried out (10 min at 25° C. and 50 min at 42° C.). Similarly, after RT, PCR reagents were introduced into the device which simultaneously flushed away the RT reagent, while the chip was situated on a magnet to immobilize the beads. Once the PCR reagents completely filled the reaction chamber, all the outlets were sealed with plugs. Then the platform was placed on the stage of a fluorescent microscope. Each PCR process was initialized and thermocycled with the following protocols: 10 min at 95° C., followed by 35 cycles of 15 s at 95° C. and 1 min at 60° C. The gene expressions of single cells were assayed for the induction of CDKN1A using a hydrolysis probe/primer. […] The threshold was calculated to be 0.07. […]

**Q.** How did the “ΔCq (difference between Cq of treated and untreated cells), GAPDH” value [1] turn out when `COS(C)(=O)=O` [MMS, methyl methanesulfonate] was run?
**A.** approximately 0.5

**Q.** What about the “ΔCq (difference between Cq of treated and untreated cells), CDKN1A” value ([2]; 120 μg/mL MMS for 2.5 h) of the same compound?
**A.** 3.0

**Q.** What about the “mean Cq value of CDKN1A” value ([2]; 120 μg/mL MMS for 2.5 h, untreated 33.5) of the same compound?
**A.** 30.5

**Q.** What about the “transcript levels of CDKN1A on treating single cells with MMS” value ([2]; 120 μg/mL for 2.5 h) of the same compound?
**A.** upregulated significantly

**Q.** What about the “upregulation of CDKN1A expression vs MMS dosage” value ([2]; 30 to 150 μg/mL, 2.5 h) of the same compound?
**A.** positively correlated with MMS dosage

**Q.** What about the “mean Cq value of CDKN1A” value ([2]; dosage 30 μg/ml, 2.5 h) of the same compound?
**A.** 33.5

**Q.** What about the “mean Cq value of CDKN1A” value ([2]; dosage 150 μg/ml, 2.5 h) of the same compound?
**A.** 29.3

**Q.** What about the “mean Cq value of CDKN1A” value ([2]; exposure time 0.5 h) of the same compound?
**A.** 32.9

**Q.** What about the “mean Cq value of CDKN1A” value ([2]; exposure time 4.5 h) of the same compound?
**A.** 28.1

**Q.** What about the “inter-unit Cq difference for CDKN1A” value ([2]; first dose step (doses from 30 to 150 μg/ml, 2.5 h)) of the same compound?
**A.** 0.4

**Q.** What about the “inter-unit Cq difference for CDKN1A” value ([2]; fourth dose step (doses from 30 to 150 μg/ml, 2.5 h)) of the same compound?
**A.** 0.7

**Q.** What about the “upregulation of CDKN1A expression vs treating time duration” value ([2]; range of 0.5 to 4.5 h) of the same compound?
**A.** positively correlated with treating time duration

**Q.** What about the “inter-unit Cq difference for CDKN1A” value ([2]; second dose step (doses from 30 to 150 μg/ml, 2.5 h)) of the same compound?
**A.** 0.7

**Q.** What about the “inter-unit Cq difference for CDKN1A” value ([2]; third dose step, 90 to 120 μg/ml, 2.5 h) of the same compound?
**A.** 1.3

**Q.** And the “amount of starting templates higher than in untreated single cells” value ([3]; 2.5 h MMS treated MCF-7 cells)?
**A.** about 45 folds

**Q.** What about the “Cq value of CDKN1A RT-qPCR” value ([3]; MMS treated single MCF-7 cells, 2.5 h, mean of five repeated tests, untreated 32.3) of the same compound?
**A.** 26.8

**Q.** And the “mean Cq value lower than untreated single cells” value ([3]; MMS treated vs untreated single MCF-7 cells)?
**A.** 5.48 cycles

**Q.** What about the “transcript levels of the CDKN1A gene after MMS treatment” value ([3]; single MCF-7 cells) of the same compound?
**A.** upregulated significantly
